Consider 6 compounds from publication PMC4904373, “Azole Antifungal Sensitivity of Sterol 14α-Demethylase (CYP51) and CYP5218 from Malassezia globosa” (Scientific Reports, 2016).

Values after ≈ are worked out from the molar mass of the structure shown. Values joined by “and” are separate entries in the source; they are usually repeats but may differ in a detail not shown here. Equal entries are not always repeated. Where two headings read alike, the source gives them in different places.

Data set [1] deals with M. globosa.
The target in data set [2] is T1, M. globosa CYP5218 (Malassezia globosa, UniProt A8QCD3, A3L/A5L/F6A/I7V/S4L/S8F). The following applies: 100 μM fatty acid, 1 hour to overnight (~16 h), three different cytochrome P450 reductase redox partners.
Method: The CYP5218 fatty acid reconstitution assay system used was based on that previously described by Guengerich[54] and contained 200 nM of CYP5218, 500 nM of cytochrome P450 reductase (A. fumigatus CPR1[52]) or H. sapiens CPR[55] or C. albicans CPR[56], 50 μM DLPC, 100 μM fatty acid (lauric acid, myristic acid, palmitic acid, palmitoleic acid, oleic acid and linoleic acid), 4 mM glucose-6-phosphate, 3 U/ml yeast glucose-6-phosphate dehydrogenase in a final volume of 500 μl with 0.1 M potassium phosphate (pH 7.4). Assay mixtures were incubated at 37 °C for 5 min prior to initiation with 4 mM β-NADPHNa4 and then incubated for a further 60 min or overnight (~16 h) at 37 °C. Fatty acid metabolites were recovered by extraction with dichloromethane and dried in a vacuum centrifuge. Samples were derivatized with 200 μl anhydrous pyridine and 250 μl BSTFA:TMCS (99:1) (30 min at 80 °C) and extracted with 500 μl of hexane, prior to analysis by GC/MS (Thermo GC Trace 1300 and ISQ MS). GC analysis was performed with a 5% phenyl methylpolysiloxane column (DB5) (Agilent Technologies). The oven programme was as follows: initial: 70 °C, with 3 min hold; ramp: 10 °C min^−1 to 180 °C (held for 2 min), 10 °C min^−1 to 250 °C (held for 2 min) and 10 °C min^−1 to 280 °C (held for 2 min). Data were analyzed using Thermo Xcalibur 2.2 software.
Data set [3] has as its target T1, M. globosa CYP5218. The experiment in a line: biochemical. It is filed as binding. The following applies: 4 μM CYP5218, type I spectra, mean of three replicates with SD. The method, then:
Reduced carbon monoxide difference spectroscopy[46][47] and absolute spectra between 700 and 300 nm were used to determine cytochrome P450 concentrations. Substrate and azole binding studies were performed[31][48] using 2.5 mM stock sterol solutions in 40% (wt/vol) (2-hydroxypropyl)-β-cyclodextrin (HPCD), 4 mg ml^−1 solutions of fatty acids in dimethylformamide (DMF), and stock 0.05, 0.1 and 0.2 mg ml^−1 solutions of azole antifungal agents in dimethylsulfoxide (DMSO). Sterols were titrated against 5 μM CYP51, fatty acids were titrated against 4 μM CYP5218 and azole antifungal agents were titrated against 2 μM CYP51 and CYP5218. The absorbance difference spectrum between 500 and 350 nm was determined after each incremental addition of ligand with saturation curves constructed from ΔApeak-trough against ligand concentration. […] The dissociation constants of the enzyme-azole complex were determined by non-linear regression (Levenberg-Marquardt algorithm) using a rearrangement of the Morrison equation for tight ligand binding. ProFit 6.1.12 (QuantumSoft, Zurich, Switzerland) was used for curve-fitting data. All ligand-binding studies were performed at 22 ± 2 °C and in triplicate. All spectral determinations were made using a Hitachi U-3310 UV/VIS spectrophotometer (San Jose, California).

A further data set has as its system Candida maltosa CYP52A4. Also on record: method as in PMID 8645001. Conditions: cited from earlier work.
The next data set has as its system M. globosa ATCC MYA-4612. Kind of data set: M. globosa MIC100 determination. It is filed as cell-based, Malassezia globosa. Conditions: for MIC: Malassezia globosa, 168 h, read-out: MIC100. As for the experimental part:
M. globosa ATCC MYA-4612 was grown for 7 days at 30 °C in modified Dixon medium (3.6% malt extract, 2% desiccated ox-bile, 1% Tween 40, 0.6% peptone, 0.2% glycerol, 0.2% oleic acid, pH adjusted to 6 with HCl) until a culture density of 1.5 × 10^5 cells ml^−1 was obtained. Cells from 3 ml of stock culture were harvested, suspended in 1 ml of saline and used to inoculate 30 ml of fresh modified Dixon medium for use as M. globosa inoculums in MIC determinations. Stock azole concentrations of 1600, 800, 400, 200, 100, 50, 25, 12.5, 6.25, 3.125 and 0 μg ml^−1 were prepared in DMSO. These were diluted ten-fold with fresh modified Dixon media and 20 μl of the diluted azole solutions were then mixed with 180 μl of M. globosa inoculum in microtiter plate wells to yield final azole concentrations of 16, 8, 4, 2, 1, 0.5, 0.25, 0.125, 0.0625, 0.03125 and 0 μg ml^−1. The microtiter plates were incubated at 30 °C for 7 days and then read. Each azole MIC100 determination was performed in triplicate.

The subject of data set [4] is M. globosa. The following applies: cited from earlier work.
Data set [5] addresses T2, M. globosa CYP51 (Malassezia globosa, UniProt A8Q3I7, A7V/E4L/G6A/I5L/L2A/Q3L/W8F). The experiment in a line: biochemical. It is filed as binding. As for the experimental part: (§1) Reduced carbon monoxide difference spectroscopy[46][47] and absolute spectra between 700 and 300 nm were used to determine cytochrome P450 concentrations. Substrate and azole binding studies were performed[31][48] using 2.5 mM stock sterol solutions in 40% (wt/vol) (2-hydroxypropyl)-β-cyclodextrin (HPCD), 4 mg ml^−1 solutions of fatty acids in dimethylformamide (DMF), and stock 0.05, 0.1 and 0.2 mg ml^−1 solutions of azole antifungal agents in dimethylsulfoxide (DMSO). Sterols were titrated against 5 μM CYP51, fatty acids were titrated against 4 μM CYP5218 and azole antifungal agents were titrated against 2 μM CYP51 and CYP5218. The absorbance difference spectrum between 500 and 350 nm was determined after each incremental addition of ligand with saturation curves constructed from ΔApeak-trough against ligand concentration. The dissociation constants (Kd) for sterols and fatty acids were determined by non-linear regression (Levenberg-Marquardt algorithm) using the Michaelis-Menten equation. The dissociation constants of the enzyme-azole complex were determined by non-linear regression (Levenberg-Marquardt algorithm) using a rearrangement of the Morrison equation for tight ligand binding. ProFit 6.1.12 (QuantumSoft, Zurich, Switzerland) was used for curve-fitting data. All ligand-binding studies were performed at 22 ± 2 °C and in triplicate. All spectral determinations were made using a Hitachi U-3310 UV/VIS spectrophotometer (San Jose, California).

For data set [6], the target named is T1, M. globosa CYP5218. The experiment in a line: biochemical. It is filed as binding. The following applies: for azole binding to CYP5218 (binding spectra): 2 μM CYP5218, result in words. As for the experimental part:
as §1

Data set [7] deals with T2, M. globosa CYP51. The experiment in a line: biochemical. As for the experimental part:
Sterol metabolites were recovered by extraction with ethyl acetate followed by derivatization with 0.1 ml N,O-bis(trimethylsilyl)trifluoroacetamide (BSTFA) : trimethylchlorosilane (TMCS) (99:1) and 0.3 ml anhydrous pyridine (2 h at 80 °C) prior to analysis by gas chromatography mass spectrometry (GC/MS)[53].

Data set [8] concerns M. globosa. Kind of data set: Sterol analysis of azole-treated M. globosa. It is filed as cell-based, Malassezia globosa. Conditions: 4 μg ml^−1 ketaminazole. As for the experimental part: Individual sterols were identified by reference to relative retention times, mass ions and fragmentation patterns. Sterol composition was calculated using peak areas.
In another data set the target is C. albicans CYP51. Details: method as in PMID 23826084. Conditions: cited from earlier work.
A further data set addresses H. sapiens CYP51. Details: method as in PMID 23826084. The following applies: cited from earlier work.
[9] abbreviates: CYP5218 Kd (μM) Michaelis-Menten.

T2 sequence (A8Q3I7 whole entry L2A/Q3L/E4L/I5L/G6A/A7V/W8F): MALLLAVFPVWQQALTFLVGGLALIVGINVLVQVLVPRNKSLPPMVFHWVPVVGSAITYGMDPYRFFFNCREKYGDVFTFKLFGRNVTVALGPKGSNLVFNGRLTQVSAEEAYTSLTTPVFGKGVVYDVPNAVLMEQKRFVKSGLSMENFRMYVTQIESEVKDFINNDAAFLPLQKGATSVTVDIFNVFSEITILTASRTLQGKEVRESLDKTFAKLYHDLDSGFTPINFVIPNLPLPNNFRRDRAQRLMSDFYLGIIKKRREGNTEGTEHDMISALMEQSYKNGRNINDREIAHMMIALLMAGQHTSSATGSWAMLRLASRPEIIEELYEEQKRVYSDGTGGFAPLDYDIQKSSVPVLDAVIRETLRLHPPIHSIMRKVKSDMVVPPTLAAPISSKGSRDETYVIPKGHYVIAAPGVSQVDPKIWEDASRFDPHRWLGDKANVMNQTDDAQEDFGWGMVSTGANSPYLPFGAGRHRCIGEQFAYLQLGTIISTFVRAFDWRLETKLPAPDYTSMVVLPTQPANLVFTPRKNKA

Regarding `C=CC[C@@H]1/C=C(\C)C[C@H](C)C[C@H](OC)[C@H]2O[C@@](O)(C(=O)C(=O)N3CCCC[C@H]3C(=O)O[C@H](/C(C)=C/[C@@H]3CC[C@@H](O)[C@H](OC)C3)[C@H](C)[C@@H](O)CC1=O)[C@H](C)C[C@@H]2OC` [FK-506], the “concentration above which cytotoxic towards M. globosa” value in the data set with M. globosa [1] was “above 0.0625 μg ml^−1”.
For `CCCCCCCCCCCC(=O)O` [Lauric acid, lauric acid], on M. globosa CYP5218 [2], the “product formation in CYP5218 reconstitution assay” value is recorded as “no observed product formation”. In addition, the values for the Kd on M. globosa CYP5218 [3] (CYP5218 Kd (μM) Eadie-Hofstee), at M. globosa CYP5218 [3] (setting [9]) and in the data set with Candida maltosa CYP52A4 were 136 ± 3 µM, 136 ± 4 µM and roughly 110 µM, respectively.
On to `CCCCCCCCCCCCCC(=O)O` [Myristic acid, myristic acid], for which, at M. globosa CYP5218 [2], the “product formation in CYP5218 reconstitution assay” value was “no observed product formation”. Moreover, the Kd was 245 ± 29 µM at M. globosa CYP5218 [3] (CYP5218 Kd (μM) Eadie-Hofstee), 195 ± 41 µM at M. globosa CYP5218 [3] (setting [9]) and roughly 120 µM in the data set on Candida maltosa CYP52A4.
On to `OC(Cn1cncn1)(Cn1cncn1)c1ccc(F)cc1F` [fluconazole], for which the MIC with M. globosa ATCC MYA-4612 (modified Dixon medium, 30 °C, 7 days) is 64 µg/mL (≈ 209 µM). Moreover, the “MIC values previously reported” value in the data set on M. globosa [4] is 4 µg/mL (≈ 13.1 µM). Also, on M. globosa CYP51 [5], the Kd worked out at 0.011 ± 0.004 µM. Further, the “azole binding to CYP5218 (binding spectra)” value on M. globosa CYP5218 [6] is listed as “did not bind”; at M. globosa CYP5218 [6] (listed as Fluconazole), “no reproducible binding spectra”. The IC50 against M. globosa CYP51 [7] (IC50, 0.5 μM CYP51, CYP51:AfCPR1 1:2, 50 μM lanosterol as substrate) was 0.206 µM and 0.2 µM.
For `CC(=O)N1CCN(c2ccc(NCC3COC(Cn4ccnc4)(c4ccc(Cl)cc4Cl)O3)cc2)CC1` (centres unmarked) [ketaminazole], the growth inhibition entry in the data set with M. globosa ATCC MYA-4612 (4 μg ml^−1) is on record as “partial inhibition of growth”. Moreover, the MIC in the data set with M. globosa ATCC MYA-4612 came to 8 µg/mL (≈ 15.1 µM). The same compound displayed a Kd at M. globosa CYP51 [5] (azole titrated against 2 μM CYP51, Morrison equation) of 0.003 ± 0.001 µM. On M. globosa CYP5218 [6], the “azole binding to CYP5218 (binding spectra)” value is reported as “type II binding spectra”. For the same compound, the Kd on M. globosa CYP5218 [6] (azole titrated against 2 μM CYP5218) was ~12 µM and ~11.7 µM. On M. globosa CYP51 [7] (0.5 μM CYP51, CYP51:AfCPR1 1:2, 50 μM lanosterol as substrate), this compound returned an IC50 of 0.321 ± 0.042 µM. Moreover, in the data set with M. globosa [8], the “sterol fraction (%) 4,4-dimethylzymosterol” value turned out to be 0.62%, the “sterol fraction (%) Eburicol” value was found to be 14.63%, the “sterol fraction (%) Episterol” value is 0.63% and the “sterol fraction (%) Ergosta-5,7-dienol” value turned out to be 13.85%. Further, in the data set with M. globosa [8], the “sterol fraction (%) Ergosta-7-enol” value is 5.00%, the “sterol fraction (%) Ergosta-8,22-dienol” value is 5.35%, the “sterol fraction (%) Ergosta-8-enol” value is given as 0% and the “sterol fraction (%) Ergosterol” value worked out at 54.64%. For the same compound, in the data set on M. globosa [8], the “sterol fraction (%) Fecosterol” value amounted to 0.54% and the “sterol fraction (%) Obtusifoliol” value amounted to 3.52%. Also, in the data set with M. globosa [8] (cholesterol assimilated from growth media), the “sterol fraction (%) Cholesterol” value is reported as 1.21%. The Kd on C. albicans CYP51 is 0.043 µM. In addition, on H. sapiens CYP51, the Kd is 0.731 µM.
As for `CC[C@@H]([C@H](C)O)n1ncn(-c2ccc(N3CCN(c4ccc(OC[C@@H]5CO[C@@](Cn6cncn6)(c6ccc(F)cc6F)C5)cc4)CC3)cc2)c1=O` [posaconazole], in the data set on M. globosa [4], the “MIC values previously reported” value is 0.06 µg/mL (≈ 0.0856 µM).

By Kd is commonly meant the free concentration of one partner at which half of the binding sites on the other are occupied at equilibrium, for simple one-to-one binding. By IC50 is commonly meant the concentration that inhibits the measured activity by half. Low values mean greater potency, high ones weaker potency.
